This assay deals with human breast cancer MDA-MB-436 cells. Briefly: In vivo pharmacodynamic study, subcutaneous xenograft tumor model of MDA-MB-436 cells. Set-up: species or system BALB/c nude mouse. The settings on record: for TGI: day 27; for Tumor volume (day 27): mean ± SEM. The source says: Experimental Example 9: In Vivo Pharmacodynamic Study of Compounds in Subcutaneous Xenograft Tumor BALB/c Nude Mouse Model of Human Breast Cancer MDA-MB-436 Cells
Experimental objective: to study the efficacy in vivo of the test compound in subcutaneous xenograft tumor BALB/c nude mouse model of human breast cancer MDA-MB-436 cells.
Experimental materials: week age and body weight: female BALB/c nude mice, 6-8 weeks old, 18-22 g of body weight. The experiment started after 3-7-days of adaptive feeding. The animal information card of each cage provides the following information about the animals: number, sex, strain, receiving date, administration regime, experiment number, group and starting date of the experiment. All the cages, padding and drinking water were sterilized before use. The cages, feed and drinking water were changed twice a week. The experimental animals were identified with ear tags. Test samples: Example 24_A and Example 25_A. All the test samples were prepared with 10% DMSO+90% (20% HP-β-CD) as vehicle, and the blank control group was administered with the vehicle alone.
1. Cell culturing. Human breast cancer MDA-MB-436 cells (ATCC, Manassas, Va., catalog No.: HTB-130) were cultured in an RPMI-1640 culture medium containing 10% fetal bovine serum and 1% Anti-anti through in vitro monolayer culture in an incubator at 37° C./5% CO2. The cells were digested with trypsin-EDTA twice a week for passaging as per conventional practice. At a cell saturation of 80%-90% and a required number, the cells were collected, counted and inoculated. 2. Tumor cell inoculation (tumor inoculation). 0.2 mL (1×10^7 cells) of MDA-MB-436 cells (along with matrigel in a volume ratio of 1:1) was subcutaneously inoculated on the right back of each mouse, and the mice were randomly grouped when the average tumor volume was 318 mm^3. 3. Daily observation of experimental animals: animals were monitored daily for health and death, and routine examinations include observation of the effect of tumor growth and drug treatment on the daily performance of the animals, such as behavioral activities, food and water intake, weight changes, appearance, or other abnormal conditions. 4. Tumor measurements and experimental indices: the experimental indices were to investigate whether the tumor growth was inhibited, the tumor growth was delayed or the tumor was cured. Tumor diameters were measured twice weekly using a vernier caliper. The tumor volume was calculated using the following formula: V=0.5a×b^2, where a and b represent the long diameter and short diameter of the tumor, respectively. The anti-tumor therapeutic effect of the compound was evaluated by TGI (%) or relative tumor proliferation rate T/C (%). TGI (%) refers to the rate of tumor growth inhibition. Calculation of TGI (%): TGI (%)=[(1−(average tumor volume at the end of administration in a treatment group−average tumor volume at the start of administration of the treatment group))/(average tumor volume at the end of treatment of the solvent control group−average tumor volume at the start of treatment of the solvent control group)]×100%. The calculation formula for relative tumor proliferation rate T/C (%) was as follows: T/C (%)=TRTV/CRTV×100% (TRTV: RTV of treatment group; CRTV: RTV of negative control group). Relative tumor volume (RTV) was calculated based on the results of tumor measurement. The calculation formula was: RTV=Vt/V0, wherein V0 was the average tumor volume measured at the time of grouping and administration (i.e., d0), Vt was the average tumor volume at a certain measurement, and the data of TRTV and CRTV used were obtained on the same day. 5. Statistical analysis: including mean and standard error of mean (SEM) of tumor volume at each time point for each group. […] The experimental data were analyzed using a one-way ANOVA method and a Games-Howell method. All data analysis was performed with SPSS 17.0. p<0.05 was defined as a significant difference.

This note sets out measurements from patent US20220144850A1, “INDOLO HEPTAMYL OXIME ANALOGUE AS PARP INHIBITOR” (Chia Tai Tianqing Pharmaceutical Group Co., Ltd., priority 2019, published 2022).

Regarding `CC1(c2ccc(-c3[nH]c4cc(F)cc5c4c3CONC5=O)cc2)CCCN1` (stereo not drawn) [Example 25_A], the TGI reads like this: (12.5 mg/kg PO QD × 28 days) 95.34%; (25 mg/kg PO QD × 28 days) 114.69%; (50 mg/kg PO QD × 28 days) 117.86%. In addition, the “Tumor volume (day 27)” value reads like this: (12.5 mg/kg PO QD × 28 days) 377 ± 149 mm^3; (25 mg/kg PO QD × 28 days) 132 ± 32 mm^3; (50 mg/kg PO QD × 28 days) 91 ± 14 mm^3.
